# Measured values published in patent publication US20230085307A1, “PYRIDAZINONE COMPOUND AND HERBICIDE” (NISSAN CHEMICAL CORPORATION, priority 2019, published 2023).
# Assays:
# velvetleaf [1] = assay: Test Example 4: herbicidal effect by soil treatment (Table 19, symbol M); assay type: in vivo, velvetleaf (Abutilon theophrasti); conditions: amount of applied herbicide 320 g/ha
# Method in brief: (§1)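 Three weeks of greenhouse growth at 25° C. to 30° C. followed a uniform surface spray of water-diluted emulsion at a predetermined herbicide amount. Seeds had been sown beforehand under about 1.5 cm of sterilized diluvial soil. Grading followed criteria set out in an earlier test.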
# Chinese sprangletop = assay: Test Example 3: herbicidal effect by foliage application, Wagner pot (Table 18, symbol D); assay type: in vivo, chinese sprangletop (Leptochloa chinensis); conditions: amount of applied herbicide 320 g/ha
# Method in brief: (§2)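 Plants were sown in alluvial soil held under 0.1–0.5 cm standing water and grown 14 days in a greenhouse at 25–30 °C. An emulsifiable formulation, water-diluted to the set dose, was then sprayed onto the foliage, and effects were scored three weeks later using previously defined criteria.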
# late watergrass [2] = assay: Test Example 1: herbicidal activity, application before weed generation under submerged conditions (Table 16, symbol A); assay type: in vivo, late watergrass (Echinochloa oryzicola); conditions: amount of applied herbicide 320 g/ha
# Method in brief: (§3)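 Emulsion formulation, water-diluted to set dose, was put onto the flooded surface (4 cm depth, alluvial soil) the same day weeds were sown and 2.5-leaf rice transplanted. After 3 weeks at 25-30 °C under glass, each species was rated 0 (≤5% kill) to 5 (≥90% kill).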
# oval-leafed pondweed [3] = assay: Test Example 1: herbicidal activity, application before weed generation under submerged conditions (Table 16, symbol C); assay type: in vivo, oval-leafed pondweed (Monochoria vaginalis); conditions: amount of applied herbicide 320 g/ha
# Method in brief: as §3
# rice flat sedge = assay: Test Example 3: herbicidal effect by foliage application, Wagner pot (Table 18, symbol E); assay type: in vivo, rice flat sedge (Cyperus iria); conditions: amount of applied herbicide 320 g/ha
# Method in brief: as §2
# lambsquarters [4] = assay: Test Example 4: herbicidal effect by soil treatment (Table 19, symbol O); assay type: in vivo, lambsquarters (Chenopodium album); conditions: amount of applied herbicide 320 g/ha
# Method in brief: as §1
# velvetleaf [5] = assay: Test Example 5: herbicidal effect by foliage application, plastic box (Table 20, symbol M); assay type: in vivo, velvetleaf (Abutilon theophrasti); conditions: foliage application, 320 g/ha, three weeks after application
# Method in brief: (§4)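 Plants sown in sterilized diluvial soil and grown 14 days in a greenhouse at 25° C to 30° C, then sprayed on the foliage with the compound's emulsion diluted in water to a predetermined herbicide amount. Injury to weeds and crops scored three weeks after application on a visual rating scale.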
# Japanese bulrush [6] = assay: Test Example 1: herbicidal activity, application before weed generation under submerged conditions (Table 16, symbol B); assay type: in vivo, Japanese bulrush (Schoenoplectus juncoides); conditions: amount of applied herbicide 320 g/ha
# Method in brief: as §3
# redroot pigweed [7] = assay: Test Example 5: herbicidal effect by foliage application, plastic box (Table 20, symbol N); assay type: in vivo, redroot pigweed (Amaranthus retroflexus); conditions: foliage application, 320 g/ha, three weeks after application
# Method in brief: as §4
# Japanese bulrush [8] = assay: Test Example 2: herbicidal activity, application during weed generation under submerged conditions (Table 17, symbol B); assay type: in vivo, Japanese bulrush (Schoenoplectus juncoides); conditions: AAH 320 g/ha; application during weed generation, submerged conditions
# Method in brief: (§5)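 Wagner pot, alluvial soil, 4 cm flood; mixed sowing of all species; greenhouse 25° C.–30° C. Emulsifiable formulation, water-diluted to predetermined dose, applied to paddy water at 1–2 leaf stage. Effect rated at 3 wk using the earlier test's scoring criteria.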
# late watergrass [9] = assay: Test Example 2: herbicidal activity, application during weed generation under submerged conditions (Table 17, symbol A); assay type: in vivo, late watergrass (Echinochloa oryzicola); conditions: AAH 320 g/ha; application during weed generation, submerged conditions
# Method in brief: as §5
# oval-leafed pondweed [10] = assay: Test Example 2: herbicidal activity, application during weed generation under submerged conditions (Table 17, symbol C); assay type: in vivo, oval-leafed pondweed (Monochoria vaginalis); conditions: AAH 320 g/ha; application during weed generation, submerged conditions
# Method in brief: as §5
# lambsquarters [11] = assay: Test Example 5: herbicidal effect by foliage application, plastic box (Table 20, symbol O); assay type: in vivo, lambsquarters (Chenopodium album); conditions: foliage application, 320 g/ha, three weeks after application
# Method in brief: as §4
# barnyard grass [12] = assay: Test Example 4: herbicidal effect by soil treatment (Table 19, symbol H); assay type: in vivo, barnyard grass (Echinochloa crus-galli); conditions: amount of applied herbicide 320 g/ha
# Method in brief: as §1
# southern crabgrass [13] = assay: Test Example 5: herbicidal effect by foliage application, plastic box (Table 20, symbol F); assay type: in vivo, southern crabgrass (Digitaria ciliaris); conditions: foliage application, 320 g/ha, three weeks after application
# Method in brief: as §4
# green foxtail [14] = assay: Test Example 5: herbicidal effect by foliage application, plastic box (Table 20, symbol G); assay type: in vivo, green foxtail (Setaria viridis); conditions: foliage application, 320 g/ha, three weeks after application
# Method in brief: as §4
# barnyard grass [15] = assay: Test Example 5: herbicidal effect by foliage application, plastic box (Table 20, symbol H); assay type: in vivo, barnyard grass (Echinochloa crus-galli); conditions: foliage application, 320 g/ha, three weeks after application
# Method in brief: as §4
# barnyard grass [16] = assay: Test Example 3: herbicidal effect by foliage application, Wagner pot (Table 18, symbol H); assay type: in vivo, barnyard grass (Echinochloa crus-galli); conditions: amount of applied herbicide 320 g/ha
# Method in brief: as §2
# southern crabgrass [17] = assay: Test Example 4: herbicidal effect by soil treatment (Table 19, symbol F); assay type: in vivo, southern crabgrass (Digitaria ciliaris); conditions: amount of applied herbicide 320 g/ha
# Method in brief: as §1
# green foxtail [18] = assay: Test Example 4: herbicidal effect by soil treatment (Table 19, symbol G); assay type: in vivo, green foxtail (Setaria viridis); conditions: amount of applied herbicide 320 g/ha
# Method in brief: as §1
# redroot pigweed [19] = assay: Test Example 4: herbicidal effect by soil treatment (Table 19, symbol N); assay type: in vivo, redroot pigweed (Amaranthus retroflexus); conditions: amount of applied herbicide 320 g/ha
# Method in brief: as §1
smiles,measurement,setting,value
COCCOc1ccc(-c2sc3ccc(F)cc3c2-c2c(O)c(Cl)nn(C)c2=O)cc1 [2-440],"herbicidal effect, M: velvetleaf",velvetleaf [1],4 (Herbicidal rate of 70% or more and less than 90%)
same,herbicidal effect on D: Chinese sprangletop,Chinese sprangletop,0 (Herbicidal rate of 5% or less (almost no effect))
same,"Herbicidal effect, A: late watergrass",late watergrass [2],3 (Herbicidal rate of 40% or more and less than 70%)
same,"Herbicidal effect, C: oval-leafed pondweed",oval-leafed pondweed [3],3 (Herbicidal rate of 40% or more and less than 70%)
same,herbicidal effect on E: rice flat sedge,rice flat sedge,0 (Herbicidal rate of 5% or less (almost no effect))
same,"herbicidal effect, O: lambsquarters",lambsquarters [4],5 (Herbicidal rate of 90% or more (almost completely withered))
same,"M: velvetleaf, herbicidal effect grade",velvetleaf [5],5 (Herbicidal rate of 90% or more (almost completely withered))
same,"Herbicidal effect, B: Japanese bulrush",Japanese bulrush [6],4 (Herbicidal rate of 70% or more and less than 90%)
same,"N: redroot pigweed, herbicidal effect grade",redroot pigweed [7],5 (Herbicidal rate of 90% or more (almost completely withered))
same,"herbicidal effect rating, B: Japanese bulrush",Japanese bulrush [8],3 (Herbicidal rate of 40% or more and less than 70%)
same,"herbicidal effect rating, A: late watergrass",late watergrass [9],3 (Herbicidal rate of 40% or more and less than 70%)
same,"herbicidal effect rating, C: oval-leafed pondweed",oval-leafed pondweed [10],3 (Herbicidal rate of 40% or more and less than 70%)
same,"O: lambsquarters, herbicidal effect grade",lambsquarters [11],5 (Herbicidal rate of 90% or more (almost completely withered))
same,"herbicidal effect, H: barnyard grass",barnyard grass [12],3 (Herbicidal rate of 40% or more and less than 70%)
same,"F: southern crabgrass, herbicidal effect grade",southern crabgrass [13],5 (Herbicidal rate of 90% or more (almost completely withered))
same,"G: green foxtail, herbicidal effect grade",green foxtail [14],5 (Herbicidal rate of 90% or more (almost completely withered))
same,"H: barnyard grass, herbicidal effect grade",barnyard grass [15],5 (Herbicidal rate of 90% or more (almost completely withered))
same,herbicidal effect on H: barnyard grass,barnyard grass [16],5 (Herbicidal rate of 90% or more (almost completely withered))
same,"herbicidal effect, F: southern crabgrass",southern crabgrass [17],3 (Herbicidal rate of 40% or more and less than 70%)
same,"herbicidal effect, G: green foxtail",green foxtail [18],5 (Herbicidal rate of 90% or more (almost completely withered))
same,"herbicidal effect, N: redroot pigweed",redroot pigweed [19],5 (Herbicidal rate of 90% or more (almost completely withered))
